From PubChem BioAssay AID1963870 (Molecular Pharmacology Branch, DTP, NCI, 2024)
Several values for one entry are separate records, joined by “and”; a condition that tells them apart may be missing. Equal values may be shown once.

Tested on: 292921-168-R-J2-PDC KRAS tumor spheroid viability
Experiment: Anticancer human tumor 292921-168-R-J2-PDC patient-derived pancreatic carcinoma cell line growth inhibition [KRAS2]
Conditions: spheroids with HUVEC and MSC; for viability, T/C: stronger effect = lower value
How it was run: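 Combination screen of spheroid viability in tumor-cell co-cultures with endothelial (HUVEC) and mesenchymal stem cell stroma. Each agent was tested in half-log dilutions, topping at clinical Cmax or at 10 microM without a known Cmax.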

[1] = curve of first compound, second compound 0.1 µM
[2] = curve of first compound, second compound 0.316 µM
[3] = curve of first compound, second compound 1 µM
[4] = curve of first compound, second compound 3.16 µM
[5] = second compound 0.1 µM, first compound 0.0316 µM
[6] = second compound 0.1 µM, first compound 0.1 µM
[7] = second compound 0.1 µM, first compound 0.316 µM
[8] = second compound 0.1 µM, first compound 1 µM
[9] = second compound 0.1 µM, first compound 3.16 µM
[10] = second compound 0.1 µM, first compound 10 µM
[11] = second compound 0.316 µM, first compound 0.0316 µM
[12] = second compound 0.316 µM, first compound 0.1 µM
[13] = second compound 0.316 µM, first compound 0.316 µM
[14] = second compound 0.316 µM, first compound 1 µM
[15] = second compound 0.316 µM, first compound 3.16 µM
[16] = second compound 0.316 µM, first compound 10 µM
[17] = second compound 1 µM, first compound 0.0316 µM
[18] = second compound 1 µM, first compound 0.1 µM
[19] = second compound 1 µM, first compound 0.316 µM
[20] = second compound 1 µM, first compound 1 µM
[21] = second compound 1 µM, first compound 3.16 µM
[22] = second compound 1 µM, first compound 10 µM
[23] = second compound 3.16 µM, first compound 0.0316 µM
[24] = second compound 3.16 µM, first compound 0.1 µM
[25] = second compound 3.16 µM, first compound 0.316 µM
[26] = second compound 3.16 µM, first compound 1 µM
[27] = second compound 3.16 µM, first compound 3.16 µM
[28] = second compound 3.16 µM, first compound 10 µM
[29] = curve of first compound, second compound 10 µM
[30] = second compound 10 µM, first compound 0.0316 µM
[31] = second compound 10 µM, first compound 0.1 µM
[32] = second compound 10 µM, first compound 0.316 µM
[33] = second compound 10 µM, first compound 1 µM
[34] = second compound 10 µM, first compound 3.16 µM
[35] = second compound 10 µM, first compound 10 µM
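Note: drug exposure lasted seven days after spheroids formed for three days.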
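Throughout, for viability, T/C: percent of DMSO vehicle control viability which is 100%.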

| Compound | IC50 [1] [nM] | IC50 [2] [nM] | IC50 [3] [nM] | IC50 [4] [nM] | viability, T/C [5] [%] | viability, T/C [6] [%] | viability, T/C [7] [%] | viability, T/C [8] [%] | viability, T/C [9] [%] | viability, T/C [10] [%] | viability, T/C [11] [%] | viability, T/C [12] [%] | viability, T/C [13] [%] | viability, T/C [14] [%] | viability, T/C [15] [%] | viability, T/C [16] [%] | viability, T/C [17] [%] | viability, T/C [18] [%] | viability, T/C [19] [%] | viability, T/C [20] [%] | further results |
| --- | --- | --- | --- | --- | --- | --- | --- | --- | --- | --- | --- | --- | --- | --- | --- | --- | --- | --- | --- | --- | --- |
| O=C(c1cc(Cc2n[nH]c(=O)c3ccccc23)ccc1F)N1CCN(C(=O)C2CC2)CC1 + C=CC(=O)N1CCN(c2nc(OCC3CCCN3C)nc3c2CCN(c2cccc4cccc(C)c24)C3)CC1CC#N | 6110 | 3560 | < 31.6 | < 31.6 | 88.3 | 68.2 | 84.5 | 75.6 | 68.5 | 36.3 | 50.5 | 56.1 | 55.2 | 62.7 | 50.2 | 30.8 | 42.9 | 43.5 | 38.1 | 34.3 | IC50 (curve of first compound, second compound 0.0316 µM): 5670 nM; viability, T/C (second compound 0.0316 µM, first compound 0.0316 µM): 102%; viability, T/C (second compound 0.0316 µM, first compound 0.1 µM): 101%; viability, T/C (second compound 0.0316 µM, first compound 0.316 µM): 102%; viability, T/C (second compound 0.0316 µM, first compound 1 µM): 85.1%; viability, T/C (second compound 0.0316 µM, first compound 3.16 µM): 62%; viability, T/C (second compound 0.0316 µM, first compound 10 µM): 38.8%; viability, T/C [21]: 43.3%; viability, T/C [22]: 19.7%; viability, T/C [23]: 0.21%; viability, T/C [24]: 0.17%; viability, T/C [25]: 0.19%; viability, T/C [26]: 0.49%; viability, T/C [27]: 0.32%; viability, T/C [28]: 0.25% |
| COc1cc2nccc(Oc3ccc(NC(=O)C4(C(=O)Nc5ccc(F)cc5)CC4)cc3)c2cc1OC + CNCc1ccccc1-c1csc(C(C)Nc2nc(C)nc3cc(OC)c(OC)cc23)c1 | 1270 | 1050 | 401 | < 31.6 | 89.2 | 94.5 | 82.5 | 57.1 | 25.1 | 18.1 | 89.4 | 90.8 | 73.4 | 55.3 | 19.8 | 17 | 69.1 | 65.5 | 50.1 | 40.2 | IC50 [29]: < 31.6 nM; viability, T/C [21]: 15.1%; viability, T/C [22]: 3.12%; viability, T/C [23]: 0.1%; viability, T/C [24]: 0.09%; viability, T/C [25]: 0.13%; viability, T/C [26]: 0.06%; viability, T/C [27]: 0.05%; viability, T/C [28]: 0.1%; viability, T/C [30]: 0.08%; viability, T/C [31]: 0.13%; viability, T/C [32]: 0.21%; viability, T/C [33]: 0.08%; viability, T/C [34]: 0.42%; viability, T/C [35]: 0.25% |
| CCNC(=O)CC1N=C(c2ccc(Cl)cc2)c2cc(OC)ccc2-n2c(C)nnc21 (centres undefined) | – | – | – | – | – | – | – | – | – | – | – | – | – | – | – | – | – | – | – | – | viability, T/C (compound 0.0316 µM): 97.6% and 105% (2×); viability, T/C (compound 0.1 µM): 101% and 90.5% and 99.3%; viability, T/C (compound 0.316 µM): 68.9% and 65.5% and 77.4%; viability, T/C (compound 1 µM): 61.3% and 61.7% and 65.3%; viability, T/C (compound 3.16 µM): 55.7% and 53.3% and 49.1%; viability, T/C (compound 10 µM): 47.1% and 38.7% and 48.1%; IC50 (curve of compound): > 10000 nM and 2930 nM and 4760 nM |
| CC1(C)CCC(CN2CCN(c3ccc(C(=O)NS(=O)(=O)c4ccc(NCC5CCOCC5)c([N+](=O)[O-])c4)c(Oc4cnc5[nH]ccc5c4)c3)CC2)=C(c2ccc(Cl)cc2)C1 + C=CC(=O)N1CCN(c2nc(=O)n(-c3c(C)ccnc3C(C)C)c3nc(-c4c(O)cccc4F)c(F)cc23)C(C)C1 | 2270 | 2190 | 2020 | 1260 | 107 | 107 | 106 | 100 | 29.5 | 8.37 | 108 | 111 | 94.3 | 114 | 23.6 | 8.55 | 113 | 106 | 102 | 99.5 | IC50 [29]: < 31.6 nM; viability, T/C [21]: 18.6%; viability, T/C [22]: 9.16%; viability, T/C [23]: 81.5%; viability, T/C [24]: 80.8%; viability, T/C [25]: 67.8%; viability, T/C [26]: 59.8%; viability, T/C [27]: 13.9%; viability, T/C [28]: 10.9%; viability, T/C [30]: 28.4%; viability, T/C [31]: 18.8%; viability, T/C [32]: 21.6%; viability, T/C [33]: 20.5%; viability, T/C [34]: 7.43%; viability, T/C [35]: 8.6% |
| COc1cc(Nc2ncc3c(n2)-c2ccc(Cl)cc2C(c2c(F)cccc2OC)=NC3)ccc1C(=O)O + CNCc1ccccc1-c1csc(C(C)Nc2nc(C)nc3cc(OC)c(OC)cc23)c1 | < 31.6 | < 31.6 | < 31.6 | < 31.6 | 27.9 | 24.7 | 28.1 | 25.4 | 22.3 | 16.5 | 25.8 | 22 | 25.9 | 23.9 | 21.1 | 14.9 | 20.6 | 19.1 | 23.1 | 19.4 | IC50 [29]: < 31.6 nM; viability, T/C [21]: 17.6%; viability, T/C [22]: 13.4%; viability, T/C [23]: 0.07%; viability, T/C [24]: 0.05%; viability, T/C [25]: 0.04%; viability, T/C [26]: 0.05%; viability, T/C [27]: 0.08%; viability, T/C [28]: 0.19%; viability, T/C [30]: 0.11%; viability, T/C [31]: 0.1%; viability, T/C [32]: 0.13%; viability, T/C [33]: 0.1%; viability, T/C [34]: 0.09%; viability, T/C [35]: 0.15% |
| CN(C)C/C=C/C(=O)Nc1cc2c(Nc3ccc(F)c(Cl)c3)ncnc2cc1O[C@H]1CCOC1 | – | – | – | – | – | – | – | – | – | – | – | – | – | – | – | – | – | – | – | – | viability, T/C (compound 0.000316 µM): 101% [middle of 5 runs]; viability, T/C (compound 0.001 µM): 101% [middle of 5 runs]; viability, T/C (compound 0.00316 µM): 85.6% [middle of 5 runs]; viability, T/C (compound 0.01 µM): 82.7% [middle of 5 runs]; viability, T/C (compound 0.0316 µM): 75.9% [middle of 5 runs]; viability, T/C (compound 0.1 µM): 70.9% [middle of 5 runs]; IC50 (curve of compound): > 100 nM |
